Read-outs that look alike come from different tables or passages of the source.
What was measured:
[1] = test system: GM3 expression in B16 mouse melanoma cells; experiment: GM3 fluorescent-linked immunosorbent assay (FLISA), B16; assay type: cell-based; settings: 48 hours
From the text: (§1) Inhibition of glucosylceramide synthase activity can be measured with one or more assays. A first assay is a microsomal assay that directly measures the conversion of ceramide to glucosylceramide by HPLC. Microsomes are a source of glucosylceramide synthase activity in the microsomal assay. A second assay is a cell based, phenotypic assay that monitors cell surface expression of the downstream lipid GM3 by antibody mediated immunofluorescence. Specific protocols are provided below.
(§2) This is a phenotypic assay that measures GM3 expression in B16 mouse melanoma or C32 human melanoma cells following treatment with test compounds. Cell surface GM3 expression is determined by antibody mediated fluorescence.
(§3) Compounds are diluted in media and plated in 384 well plates in DMSO. B16 and C32 cells are assayed at densities of 20,000 cells/ml and 62,500 cells/ml, respectively, per well. Each titration curve contains 10 points that are assayed in duplicate on each test run. The plates are incubated for 48 hours at 37° C., 5% CO2, and are then washed once with TBS. Anti-GM3 antibody is added to each well and the plates are then incubated for an additional one hour at room temperature. Plates are subsequently washed twice and incubated for an additional hour with the labeled secondary antibody. Following the final incubation, the plates are washed twice and the fluorescence at λex=D640/20 nm and λem=657 nm is detected on a fluorescent reader.
(§4) The results of the microsomal assays are expressed as “GCS IC50,” which represents the concentration of the compound causing 50% inhibition of glucosylceramide synthase activity. The results of the cell-based assays are expressed as “GM3 B16 IC50” or “GM3 C32 IC50” for the B16 assay and the C32 assay, respectively. These values represent the concentration of the compound causing 50% inhibition of GM3 expression on the cell surface.

[2] = test system: GM3 expression in C32 human melanoma cells; experiment: GM3 fluorescent-linked immunosorbent assay (FLISA), C32; assay type: cell-based; settings: 48 hours
From the text: as §1, §2, §3, §4

[3] = Study 1 Part 1: ascending single-dose PK in healthy men; assay type: in vivo, human; settings: for Tmax / AUC(0-inf) / AUC(0-t) / Cmax / Vd/F / half-life: male, human, plasma, oral; for Tmax: N = 6, read-out: tmax, median
From the text: Study 1 was a 2-part single-center trial in healthy adult male volunteers.
Part 1 of the study enrolled and randomized 55 healthy men (placebo, n=14; 2-, 5-, 15, 25-, 50, and 100-mg doses, n=6 each; 150-mg dose, n=5). Eight healthy men participated in Part 2. […]

## CC(C)(NC(=O)O[C@@H]1CN2CCC1CC2)c1csc(-c2ccc(F)cc2)n1 [Compound 2, (S)-quinuclidin-3-yl 2-(2-(4-fluorophenyl)thiazol-4-yl)propan-2-ylcarbamate]
[1]
  IC50: 107 µM
[2]
  IC50: 9.6 µM
[3]; 2 mg single dose, N = 6
  CL/F, Geometric mean (CV): 6.3 (22.0) L/h
[3]; 5 mg single dose, N = 6
  CL/F, Geometric mean (CV): 5.8 (17.3) L/h
[3]; 15 mg single dose, N = 6
  CL/F, Geometric mean (CV): 5.6 (32.2) L/h
[3]; 25 mg single dose, N = 6
  CL/F, Geometric mean (CV): 5.0 (25.3) L/h
  tmax, median: 5.00 h
[3]; 50 mg single dose, N = 6
  CL/F, Geometric mean (CV): 5.5 (34.9) L/h
[3]; 100 mg single dose, N = 6
  CL/F, Geometric mean (CV): 5.3 (23.4) L/h
  tmax, median: 3.00 h
[3]; 150 mg single dose, N = 5
  CL/F, Geometric mean (CV): 5.6 (26.7) L/h
[3]; 2 mg single dose
  Tmax: 3.5 h
[3]; 2 mg, 2 mg single dose, N = 6, read-out: AUCinf, Geometric mean (CV)
  AUC(0-inf): 237 ng·h/mL
[3]; 2 mg, 2 mg single dose, N = 6, read-out: AUCinf, Mean (SD)
  AUC(0-inf): 243 ng·h/mL
[3]; 2 mg, 2 mg single dose, N = 6, read-out: AUClast, Geometric mean (CV)
  AUC(0-t): 209 ng·h/mL
[3]; 2 mg, 2 mg single dose, N = 6, read-out: AUClast, Mean (SD)
  AUC(0-t): 214 ng·h/mL
[3]; 2 mg, 2 mg single dose, N = 6, read-out: Cmax, Geometric mean (CV)
  Cmax: 5.6 ng/mL
[3]; 2 mg, 2 mg single dose, N = 6, read-out: Cmax, Mean (SD)
  Cmax: 5.7 ng/mL
[3]; 2 mg, 2 mg single dose, N = 6, read-out: Vss/F, Geometric mean (CV)
  Vd/F: 270 L
[3]; 2 mg, 2 mg single dose, N = 6, read-out: Vss/F, Mean (SD)
  Vd/F: 275 L
[3]; 2 mg, 2 mg single dose, N = 6, read-out: t1/2, Geometric mean (CV) (converted)
  half-life: 28.9 h
[3]; 2 mg, 2 mg single dose, N = 6, read-out: t1/2, Mean (SD) (converted)
  half-life: 29.2 h
[3]; 5 mg single dose
  Tmax: 5.5 h
[3]; 5 mg, 5 mg single dose, N = 6, read-out: AUCinf, Geometric mean (CV)
  AUC(0-inf): 643 ng·h/mL
[3]; 5 mg, 5 mg single dose, N = 6, read-out: AUCinf, Mean (SD)
  AUC(0-inf): 652 ng·h/mL
[3]; 5 mg, 5 mg single dose, N = 6, read-out: AUClast, Geometric mean (CV)
  AUC(0-t): 556 ng·h/mL
[3]; 5 mg, 5 mg single dose, N = 6, read-out: AUClast, Mean (SD)
  AUC(0-t): 560 ng·h/mL
[3]; 5 mg, 5 mg single dose, N = 6, read-out: Cmax, Geometric mean (CV)
  Cmax: 14.6 ng/mL
[3]; 5 mg, 5 mg single dose, N = 6, read-out: Cmax, Mean (SD)
  Cmax: 14.7 ng/mL
[3]; 5 mg, 5 mg single dose, N = 6, read-out: Vss/F, Geometric mean (CV)
  Vd/F: 273 L
[3]; 5 mg, 5 mg single dose, N = 6, read-out: Vss/F, Mean (SD)
  Vd/F: 274 L
[3]; 5 mg, 5 mg single dose, N = 6, read-out: t1/2, Geometric mean (CV) (converted)
  half-life: 32.5 h
[3]; 5 mg, 5 mg single dose, N = 6, read-out: t1/2, Mean (SD) (converted)
  half-life: 33.3 h
[3]; 15 mg single dose
  Tmax: 3.5 h
[3]; 15 mg, 15 mg single dose, N = 6, read-out: AUCinf, Geometric mean (CV)
  AUC(0-inf): 1990 ng·h/mL
[3]; 15 mg, 15 mg single dose, N = 6, read-out: AUCinf, Mean (SD)
  AUC(0-inf): 2070 ng·h/mL
[3]; 15 mg, 15 mg single dose, N = 6, read-out: AUClast, Geometric mean (CV)
  AUC(0-t): 1760 ng·h/mL
[3]; 15 mg, 15 mg single dose, N = 6, read-out: AUClast, Mean (SD)
  AUC(0-t): 1830 ng·h/mL
[3]; 15 mg, 15 mg single dose, N = 6, read-out: Cmax, Geometric mean (CV)
  Cmax: 50.7 ng/mL
[3]; 15 mg, 15 mg single dose, N = 6, read-out: Cmax, Mean (SD)
  Cmax: 53 ng/mL
[3]; 15 mg, 15 mg single dose, N = 6, read-out: Vss/F, Geometric mean (CV)
  Vd/F: 233 L
[3]; 15 mg, 15 mg single dose, N = 6, read-out: Vss/F, Mean (SD)
  Vd/F: 245 L
[3]; 15 mg, 15 mg single dose, N = 6, read-out: t1/2, Geometric mean (CV) (converted)
  half-life: 29 h
[3]; 15 mg, 15 mg single dose, N = 6, read-out: t1/2, Mean (SD) (converted)
  half-life: 29.7 h
[3]; 25 mg, 25 mg single dose, N = 6, read-out: AUCinf, Geometric mean (CV)
  AUC(0-inf): 3690 ng·h/mL
[3]; 25 mg, 25 mg single dose, N = 6, read-out: AUCinf, Mean (SD)
  AUC(0-inf): 3810 ng·h/mL
[3]; 25 mg, 25 mg single dose, N = 6, read-out: AUClast, Geometric mean (CV)
  AUC(0-t): 3240 ng·h/mL
[3]; 25 mg, 25 mg single dose, N = 6, read-out: AUClast, Mean (SD)
  AUC(0-t): 3380 ng·h/mL
[3]; 25 mg, 25 mg single dose, N = 6, read-out: Cmax, Geometric mean (CV)
  Cmax: 79.9 ng/mL
[3]; 25 mg, 25 mg single dose, N = 6, read-out: Cmax, Mean (SD)
  Cmax: 84.4 ng/mL
[3]; 25 mg, 25 mg single dose, N = 6, read-out: Vss/F, Geometric mean (CV)
  Vd/F: 228 L
[3]; 25 mg, 25 mg single dose, N = 6, read-out: Vss/F, Mean (SD)
  Vd/F: 240 L
